Our source for the EC50 and MRT values is patent US20240247080A1, “GLP1/GIP/NPY2 RECEPTOR TRIPLE AGONISTS” (Boehringer Ingelheim International GmbH, priority 2022, published 2024).

One data set has as its target T1, hGIPR (Homo sapiens, UniProt P48546).
T1 construct: expressed in transfected cells; host or cells: CHO cells carrying a CRE-luciferase reporter gene
T1 sequence (P48546 22-466): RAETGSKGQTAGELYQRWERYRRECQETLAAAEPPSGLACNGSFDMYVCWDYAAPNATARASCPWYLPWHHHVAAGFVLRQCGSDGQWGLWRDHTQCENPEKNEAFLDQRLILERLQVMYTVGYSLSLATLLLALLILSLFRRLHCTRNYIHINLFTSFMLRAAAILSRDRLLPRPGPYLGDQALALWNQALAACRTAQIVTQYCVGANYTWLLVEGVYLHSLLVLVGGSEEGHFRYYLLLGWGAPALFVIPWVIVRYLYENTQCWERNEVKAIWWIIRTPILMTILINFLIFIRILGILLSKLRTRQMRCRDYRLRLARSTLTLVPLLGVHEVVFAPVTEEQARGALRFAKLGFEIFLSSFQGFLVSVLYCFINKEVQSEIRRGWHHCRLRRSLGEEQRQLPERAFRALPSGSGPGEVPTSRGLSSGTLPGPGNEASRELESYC
In words: hGIPR CreLuc reporter gene assay in 0.5% and 100% plasma. It is filed as cell-based. Particulars: CreLuc reporter gene assay. Put shortly:
(§1)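 HEK-293 cells co-expressing GLP-1 or NPY2 receptor and CHO cells expressing GIP receptor, each carrying a CRE-driven luciferase reporter, were stimulated with peptides for 4 hours at 37 °C. Luminescence was read after Bright-Glo addition. EC50 came from 8-point, four-decade curves fitted by variable-slope non-linear regression.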
In general terms: A reporter such as luciferase makes a cellular process visible.

The nature of data set [1]: Mouse PK after intravenous application. Particulars: plasma, mean residence time, intravenous 30-60 nmol/kg, male NMRI mice. It is filed as in vivo. As for the experimental part:
Pharmacokinetic parameters of the peptides were determined after intravenous application to NMRI mice. Male NMRI mice were obtained from Janvier Laboratories (France) weighing 30 to 40 g. Mice were housed in standard cages with a 12:12 hour light:dark cycle and standard food and water access ad libitum. Each test peptide was dissolved in 50 mM phosphate buffer (pH 7.4)/3.5% mannitol. Intravenous application of 30-60 nmol/kg was performed via the tail vein. Serial blood samples from conscious mice were collected from the saphenous vein in EDTA-containing vials at different time points up to 56 hours post-dosing. Subsequently, plasma was prepared by centrifugation for 5 min at approximately 5000 rpm and stored at −20° C. until quantification of the peptide plasma levels by liquid chromatography mass spectrometry (LC-MS). Individual plasma concentration—time profiles were analysed by a non-compartmental approach and the resulting pharmacokinetic parameters were calculated.

Another data set addresses T2, hNPY2R (Homo sapiens, UniProt P49146).
T2 construct: expressed in transfected cells; host or cells: HEK-293 cells carrying a CRE-luciferase reporter gene
T2 sequence (P49146 1-381): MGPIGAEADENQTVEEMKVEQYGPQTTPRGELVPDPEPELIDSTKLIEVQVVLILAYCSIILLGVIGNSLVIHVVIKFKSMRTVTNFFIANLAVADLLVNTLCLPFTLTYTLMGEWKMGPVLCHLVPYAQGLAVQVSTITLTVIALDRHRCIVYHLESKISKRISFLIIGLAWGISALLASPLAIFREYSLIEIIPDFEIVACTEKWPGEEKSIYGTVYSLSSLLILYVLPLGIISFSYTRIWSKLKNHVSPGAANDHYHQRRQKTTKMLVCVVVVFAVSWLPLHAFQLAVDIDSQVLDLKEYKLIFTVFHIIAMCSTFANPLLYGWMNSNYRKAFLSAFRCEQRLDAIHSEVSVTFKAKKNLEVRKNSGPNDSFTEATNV
As to the kind of experiment: hNPY2R CreLuc reporter gene assay in 0.5% and 100% plasma. It is filed as cell-based. The note with it: CreLuc reporter gene assay. Put shortly:
as §1

A further data set has as its target T3, hGLP1R (Homo sapiens, UniProt P43220).
T3 construct: expressed in transfected cells; host or cells: HEK-293 cells carrying a CRE-luciferase reporter gene
In words: hGLP1R CreLuc reporter gene assay in 0.5% and 100% plasma. Particulars: CreLuc reporter gene assay. It is filed as cell-based. Put shortly:
as §1

The mark [2] stands for this setting: 0.5% human plasma, read-out: hGIPR 0.5% hP.
The mark [3] stands for this setting: 100% human plasma, read-out: hGIPR 100% hP.
The mark [4] stands for this setting: 0.5% human plasma, read-out: hNPY2R 0.5% hP.
Where [5] appears, read: 0.5% human plasma, read-out: hGLP1R 0.5% hP.
Where [6] appears, read: 100% human plasma, read-out: hNPY2R 100% hP.

Where two headings read alike, the source gives them in different places. Starred links: 1 amine or outer side, 2 acyl side, 3 side chain; linkers in the order of their positions; H or OH if unused. Non-standard residues stand in square brackets, D forms with d. Groups on a side chain read outwards from the residue. No end group written: not given here. *: point of attachment. C20 diacid = O=C(O)CCCCCCCCCCCCCCCCCCC(=O)*; C18 diacid = O=C(O)CCCCCCCCCCCCCCCCC(=O)*; γGlu = O=C(O)[C@H](CCC(=O)[*:2])N[*:1]; εLys = N[C@@H](CCCCN[*:1])C(=O)[*:2]; Aib = CC(C)(N)C(=O)O; Ahx = NCCCCCC(=O)O Where only a bound is given, the exact number is not on record here.

By MRT is commonly meant a mean duration of stay, worked out from the concentration-time curve.

T3 sequence (P43220 24-463): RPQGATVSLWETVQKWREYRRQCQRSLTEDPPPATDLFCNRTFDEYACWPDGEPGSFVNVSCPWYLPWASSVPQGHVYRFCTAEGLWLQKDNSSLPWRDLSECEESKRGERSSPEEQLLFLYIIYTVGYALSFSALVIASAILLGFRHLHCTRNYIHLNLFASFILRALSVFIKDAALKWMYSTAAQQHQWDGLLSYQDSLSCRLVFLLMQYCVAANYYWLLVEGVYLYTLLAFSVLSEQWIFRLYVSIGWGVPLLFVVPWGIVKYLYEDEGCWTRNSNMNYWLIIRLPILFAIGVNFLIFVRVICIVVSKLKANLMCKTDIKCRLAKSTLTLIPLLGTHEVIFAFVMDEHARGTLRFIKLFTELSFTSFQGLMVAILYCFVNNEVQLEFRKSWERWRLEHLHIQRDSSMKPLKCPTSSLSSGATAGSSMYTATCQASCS

Consider “Y[Aib]EGTFTSDYSI[Aib]LEKQAQ[Aib]AFVEWLIK([εLys-γGlu-γGlu-γGlu-γGlu-γGlu-γGlu-γGlu-C20 diacid])GGPSSGASLRHYYNWLTRQRY-NH2 [Compound 225, Y-Aib-E-G-T-F-T-S-D-Y-S-I-Aib-L-E-K-Q-A-Q-Aib-A-F-V-E-W-L-I-K(1,3)-GGPSSGASLRHYYNWLTRQRY-NH2.C20DA-gGlu-gGlu-gGlu-gGlu-gGlu-gGlu-gGlu-eLys(1,2)]”, for which the EC50 on hGIPR (setting [2]) is 0.28 nM; on hGIPR (setting [3]), 1.23 nM; at hNPY2R (setting [4]) it was 14.9 nM; on hGLP1R (setting [5]), 0.12 nM. The same molecule registered an MRT in data set [1] of 13 h.
On to `CC[C@H](C)[C@H](NC(=O)[C@H](CC(C)C)NC(=O)[C@H](Cc1c[nH]c2ccccc12)NC(=O)[C@H](CCC(=O)O)NC(=O)[C@@H](NC(=O)[C@H](Cc1ccccc1)NC(=O)[C@H](C)NC(=O)C(C)(C)NC(=O)[C@H](CCC(N)=O)NC(=O)[C@H](C)NC(=O)[C@H](CCC(N)=O)NC(=O)[C@H](CCCCN)NC(=O)[C@H](CCC(=O)O)NC(=O)[C@H](CC(C)C)NC(=O)C(C)(C)NC(=O)[C@@H](NC(=O)[C@H](CO)NC(=O)[C@H](Cc1ccc(O)cc1)NC(=O)[C@H](CC(=O)O)NC(=O)[C@H](CO)NC(=O)[C@@H](NC(=O)[C@H](Cc1ccccc1)NC(=O)[C@@H](NC(=O)CNC(=O)[C@H](CCC(=O)O)NC(=O)C(C)(C)NC(=O)[C@@H](N)Cc1ccc(O)cc1)[C@@H](C)O)[C@@H](C)O)[C@@H](C)CC)C(C)C)C(=O)N[C@@H](CCCCNC(=O)[C@@H](N)CCCCNC(=O)CC[C@H](NC(=O)CC[C@H](NC(=O)CC[C@H](NC(=O)CC[C@H](NC(=O)CC[C@H](NC(=O)CC[C@H](NC(=O)CCCCCCCCCCCCCCCCCCC(=O)O)C(=O)O)C(=O)O)C(=O)O)C(=O)O)C(=O)O)C(=O)O)C(=O)NCC(=O)NCC(=O)N1CCC[C@H]1C(=O)N[C@@H](CO)C(=O)N[C@@H](CO)C(=O)NCC(=O)N[C@@H](C)C(=O)N[C@@H](CO)C(=O)N[C@@H](CC(C)C)C(=O)N[C@@H](CCCNC(=N)N)C(=O)N[C@@H](Cc1c[nH]cn1)C(=O)N[C@@H](Cc1ccc(O)cc1)C(=O)N[C@@H](Cc1ccc(O)cc1)C(=O)N[C@@H](CC(N)=O)C(=O)N[C@@H](Cc1c[nH]c2ccccc12)C(=O)N[C@@H](CC(C)C)C(=O)N[C@H](C(=O)N[C@@H](CCCNC(=N)N)C(=O)N[C@@H](CCC(N)=O)C(=O)N[C@@H](CCCNC(=N)N)C(=O)N[C@H](Cc1ccc(O)cc1)C(N)=O)[C@@H](C)O` [Compound 214, Y-Aib-E-G-T-F-T-S-D-Y-S-I-Aib-L-E-K-Q-A-Q-Aib-A-F-V-E-W-L-I-K(1,3)-GGPSSGASLRHYYNWLTRQR-DTyr-NH2.C20DA-gGlu-gGlu-gGlu-gGlu-gGlu-gGlu-eLys(1,2)], for which the EC50 at hGIPR (setting [2]) was 0.23 nM; at hGIPR (setting [3]), 1.81 nM; at hNPY2R (setting [4]) it was greater than 99.9 nM; at hGLP1R (setting [5]) it was 0.19 nM; at hGLP1R (100% human plasma, read-out: hGLP1R 100% hP), 2.65 nM. Also, in data set [1], the MRT turned out to be 10.1 h.
Take “Y[Aib]EGTFTSDYSI[Aib]LEKQAQ[Aib]AFVQWLIK([εLys-γGlu-γGlu-γGlu-γGlu-γGlu-γGlu-γGlu-C20 diacid])GGPSEGASLRHYYNWLTRQRY-NH2 [Compound 224, Y-Aib-E-G-T-F-T-S-D-Y-S-I-Aib-L-E-K-Q-A-Q-Aib-A-F-V-Q-W-L-I-K(1,3)-GGPSEGASLRHYYNWLTRQRY-NH2.C20DA-gGlu-gGlu-gGlu-gGlu-gGlu-gGlu-gGlu-eLys(1,2)]”: the EC50 at hGIPR (setting [2]) was 0.43 nM; at hNPY2R (setting [4]), 10.6 nM; on hNPY2R (setting [6]), 31.6 nM; on hGLP1R (setting [5]), 0.13 nM. Further, in data set [1], the MRT was found to be 10.2 h.
As for “H-Y[Aib]EGTFTSDYSI[Aib]LEKQAQ[Aib]AFVQWLIK([Ahx-γGlu-γGlu-γGlu-γGlu-γGlu-γGlu-C18 diacid])GGPSSGASLRHYYNWLTRQRY-NH2 [Compound 139, Y-Aib-E-G-T-F-T-S-D-Y-S-I-Aib-L-E-K-Q-A-Q-Aib-A-F-V-Q-W-L-I-K(1,3)-GGPSSGASLRHYYNWLTRQRY-NH2.C18DA-gGlu-gGlu-gGlu-gGlu-gGlu-gGlu-AHX(1,2)]”, the EC50 on hGIPR (setting [2]) turned out to be 0.22 nM; on hGIPR (setting [3]), 1.04 nM; at hNPY2R (setting [4]), 18.3 nM; on hGLP1R (setting [5]), 0.07 nM. This molecule also gave an MRT in data set [1] of 10 h.
For `CC[C@H](C)[C@H](NC(=O)[C@H](CC(C)C)NC(=O)[C@H](Cc1c[nH]c2ccccc12)NC(=O)[C@H](CCC(=O)O)NC(=O)[C@@H](NC(=O)[C@H](Cc1ccccc1)NC(=O)[C@H](C)NC(=O)C(C)(C)NC(=O)[C@H](CCC(N)=O)NC(=O)[C@H](C)NC(=O)[C@H](CCC(N)=O)NC(=O)[C@H](CCCCN)NC(=O)[C@H](CCC(=O)O)NC(=O)[C@H](CC(C)C)NC(=O)C(C)(C)NC(=O)[C@@H](NC(=O)[C@H](CO)NC(=O)[C@H](Cc1ccc(O)cc1)NC(=O)[C@H](CC(=O)O)NC(=O)[C@H](CO)NC(=O)[C@@H](NC(=O)[C@H](Cc1ccccc1)NC(=O)[C@@H](NC(=O)CNC(=O)[C@H](CCC(=O)O)NC(=O)C(C)(C)NC(=O)[C@@H](N)Cc1ccc(O)cc1)[C@@H](C)O)[C@@H](C)O)[C@@H](C)CC)C(C)C)C(=O)N[C@@H](CCCCNC(=O)[C@@H](N)CCCCNC(=O)CC[C@H](NC(=O)CC[C@H](NC(=O)CC[C@H](NC(=O)CC[C@H](NC(=O)CC[C@H](NC(=O)CC[C@H](NC(=O)CCCCCCCCCCCCCCCCCCC(=O)O)C(=O)O)C(=O)O)C(=O)O)C(=O)O)C(=O)O)C(=O)O)C(=O)NCC(=O)NCC(=O)N1CCC[C@H]1C(=O)N[C@@H](CO)C(=O)N[C@@H](CO)C(=O)NCC(=O)N[C@H](C(=O)N[C@@H](CO)C(=O)N[C@H](C(=O)N[C@@H](CCCNC(=N)N)C(=O)N[C@@H](Cc1c[nH]cn1)C(=O)N[C@@H](Cc1ccc(O)cc1)C(=O)N[C@@H](Cc1ccc(O)cc1)C(=O)N[C@@H](CC(N)=O)C(=O)N[C@@H](Cc1c[nH]c2ccccc12)C(=O)N[C@@H](CC(C)C)C(=O)N[C@H](C(=O)N[C@@H](CCCNC(=N)N)C(=O)N[C@@H](CCC(N)=O)C(=O)N[C@@H](CCCNC(=N)N)C(=O)N[C@@H](Cc1ccc(O)cc1)C(N)=O)[C@@H](C)O)[C@@H](C)CC)C(C)C` [Compound 27, Y-Aib-E-G-T-F-T-S-D-Y-S-I-Aib-L-E-K-Q-A-Q-Aib-A-F-V-E-W-L-I-K(1,3)-GGPSSGVSIRHYYNWLTRQRY-NH2.C20DA-gGlu-gGlu-gGlu-gGlu-gGlu-gGlu-eLys(1,2)], the EC50 on hGIPR (setting [2]) turned out to be 0.17 nM; on hGIPR (setting [3]), 1.11 nM; on hNPY2R (setting [6]), 21 nM; at hGLP1R (setting [5]) it was 0.1 nM. In data set [1], this molecule had an MRT of 6.7 h.
